These results are taken from ChEMBL document CHEMBL1201862, “PubChem BioAssay data set” (2004).

Molecules are shown by their SMILES.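 The compound was tested at five concentrations on cells cultured in 96-well plates, with a 48-hour exposure period. GI50: concentration for 50% inhibition of growth.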 The source made the active and inactive calls. Rule as the data show it: active = GI50 up to about 1.1 µM and inactive = higher.

Test systems include DLD-1; M19-MEL; LXFL 529; XF498; KM-20L2; DMS-114; SNB-78; HOP-18; RXF 631.
Holding throughout (assay): NCI tumour cell line growth inhibition, 48 h

As to `COc1ccccc1-c1cc(O)c2cc3c(cc2n1)OCO3`, the GI50 in the assay with DLD-1 is 40.2 µM (inactive); with M19-MEL, 32.4 µM (inactive); in the assay with LXFL 529, 48.9 µM (inactive); with XF498, 21.9 µM (inactive).
`O=C(NO)c1ccc([N+](=O)[O-])cc1`: the GI50 in the assay with KM-20L2 is 62.2 µM (inactive); in the assay with DLD-1, 51.3 µM (inactive); with M19-MEL it was 52.2 µM (inactive); in the assay with LXFL 529, 25.1 µM (inactive); in the assay on XF498, 73.1 µM (inactive); in the assay with DMS-114 it was 30.7 µM (inactive).
`COC(=O)C12OCC34C(CC5C(C)C6=CC(=O)OC6=CC5(C)C3C(O)C1O)OC(=O)C(OC(C)=O)C24` (stereo not given): the GI50 in the assay on KM-20L2 was 17 µM (inactive); in the assay on DLD-1, 14.6 µM (inactive); in the assay on M19-MEL it was 15.4 µM (inactive); in the assay with SNB-78 it was 11.6 µM (inactive); in the assay on LXFL 529, 14.6 µM (inactive); in the assay with XF498 it was 12.2 µM (inactive). The GI50 was 12.3 µM (inactive) with DMS-114, 14.2 µM (inactive) in the assay on HOP-18 and 16.8 µM (inactive) in the assay on RXF 631.
In the case of `COC(=O)c1c2c(cc3c1CC1(Cc4cc5c(c(C(C)=O)c4C1)CCC5)C3)CCC2` (stereo not given), the GI50 in the assay on DLD-1 is > 100 µM (inactive); with M19-MEL it was > 100 µM (inactive); in the assay on SNB-78, > 100 µM (inactive); in the assay on LXFL 529 it was 64.3 µM (inactive); with XF498, 31.3 µM (inactive); in the assay on DMS-114 it was 61.5 µM (inactive). For the same molecule, in the assay on HOP-18, the GI50 was > 100 µM (inactive).
Take `Cc1cc(Cl)ccc1N1C(=O)C(=O)C(c2nc3ccccc3s2)C(=O)C1=O`: the GI50 in the assay with KM-20L2, with DLD-1, in the assay with SNB-78, in the assay with LXFL 529, in the assay with XF498 and with DMS-114 was > 100 µM (inactive) throughout. Moreover, the GI50 in the assay with HOP-18 and in the assay on RXF 631 was > 100 µM (inactive) each time.
Take `COc1cc(/C=C(\NC(=O)c2ccccc2)c2nc3ccc4c(c3[nH]2)C(=O)c2ccccc2C4=O)cc(OC)c1OC`: the GI50 was > 100 µM (inactive) in the assay on KM-20L2; 7.11 µM (inactive) in the assay on DLD-1; > 100 µM (inactive) with M19-MEL; 76.7 µM (inactive) in the assay with SNB-78; 49 µM (inactive) in the assay on LXFL 529; > 100 µM (inactive) in the assay with XF498. For the same molecule, the GI50 in the assay with DMS-114 was 32.4 µM (inactive); in the assay with RXF 631, 58.7 µM (inactive).
In the case of `COc1cc(C(C)O)c[n+](CCc2c[nH]c3ccccc23)c1` (stereo not given), the GI50 in the assay with KM-20L2 was 56.9 µM (inactive); in the assay on DLD-1, > 100 µM (inactive); in the assay on M19-MEL, > 100 µM (inactive); in the assay with LXFL 529, > 100 µM (inactive); with XF498 it was > 100 µM (inactive); in the assay on DMS-114, > 100 µM (inactive). Moreover, in the assay on RXF 631, the GI50 was > 100 µM (inactive).
Turning to `Cc1c(C(=O)O)n(C)c(=O)n(C)c1=O`, the GI50 with KM-20L2, in the assay on DLD-1, in the assay with M19-MEL, in the assay on LXFL 529, in the assay with XF498 and with HOP-18 was > 100 µM (inactive) in each case.
On to `COC1CC(Br)(C#N)C1` (stereo not given), for which the GI50 with KM-20L2, in the assay on DLD-1, in the assay on M19-MEL, with SNB-78, in the assay on DMS-114 and in the assay with HOP-18 was > 100 µM (inactive) in each case.
On to `Clc1ccc(SC(/C=C/NNC2=NN=C(c3ccccc3)C(c3ccccc3)N2)c2ccccc2)cc1` (stereo not given), for which the GI50 is 19.9 µM (inactive) in the assay with KM-20L2; 23.4 µM (inactive) in the assay with DLD-1; 36.5 µM (inactive) in the assay with M19-MEL; 32.7 µM (inactive) with SNB-78; 18.7 µM (inactive) in the assay on XF498; 18.5 µM (inactive) with DMS-114. Also, the GI50 in the assay on RXF 631 was 25 µM (inactive).
Consider `Cn1c(=O)c(C(=O)NC(=O)OCc2ccccc2)cn(CCSCCOC(=O)NCCCCCCNC(=O)OCCSCCn2cc(C(=O)NC(=O)OCc3ccccc3)c(=O)n(C)c2=O)c1=O`, for which the GI50 in the assay with KM-20L2 is > 100 µM (inactive); in the assay with DLD-1 it was > 100 µM (inactive); with M19-MEL it was > 100 µM (inactive); in the assay on SNB-78 it was > 100 µM (inactive); in the assay with LXFL 529 it was > 100 µM (inactive); in the assay on XF498 it was 16.9 µM (inactive). Besides, the GI50 in the assay with DMS-114 was 78 µM (inactive); in the assay with RXF 631 it was > 100 µM (inactive).
In the case of `NC(=O)/C=C/C(=O)O`, the GI50 in the assay with DLD-1, in the assay with M19-MEL, in the assay on SNB-78, with LXFL 529, in the assay with DMS-114 and in the assay with HOP-18 was > 5000 µM (inactive) in each case.
With `CC[N+](C)(C)c1ccc(C(=C2C=CC(=[N+](C)C)C=C2)c2ccc(N(C)C)cc2)cc1`, the GI50 in the assay with DLD-1 was 6.07 µM (inactive); with M19-MEL it was 7.91 µM (inactive); with LXFL 529 it was 6.04 µM (inactive); with XF498, 15.8 µM (inactive); in the assay on DMS-114, 11 µM (inactive); in the assay with HOP-18, 6.89 µM (inactive). In addition, the GI50 with RXF 631 is 13.4 µM (inactive).
Turning to `CC1=NN(C(=O)Cc2ccccc2)C(=O)/C1=C\c1cccc(O)c1`, the GI50 in the assay with DLD-1, in the assay with M19-MEL, in the assay on SNB-78, with XF498, with DMS-114 and in the assay on HOP-18 was > 100 µM (inactive) in each case.
For the molecule `NC1=NN(c2ccccc2)C(=O)C1C(=O)C(=O)NC1C2CC3CC(C2)CC1C3` (stereo not given), the GI50 is > 100 µM (inactive) with KM-20L2; > 100 µM (inactive) with DLD-1; > 100 µM (inactive) in the assay with M19-MEL; > 100 µM (inactive) with SNB-78; 66.1 µM (inactive) in the assay on LXFL 529; > 100 µM (inactive) in the assay on DMS-114. In addition, the GI50 in the assay with HOP-18 and in the assay on RXF 631 was > 100 µM (inactive) throughout.
`CN(C)Cc1[nH]c2ccccc2c1C(=O)c1ccccc1`: the GI50 in the assay with KM-20L2 was 64.9 µM (inactive); in the assay on DLD-1, > 100 µM (inactive); with LXFL 529, > 100 µM (inactive); in the assay on XF498 it was 97.9 µM (inactive).
Turning to `O=[PH](O)c1cccnc1`, the GI50 in the assay with KM-20L2, with DLD-1, in the assay with M19-MEL, in the assay on SNB-78, with LXFL 529 and with XF498 was > 100 µM (inactive) in each case. For the same molecule, the GI50 with DMS-114 and in the assay with RXF 631 was > 100 µM (inactive) each time.
Turning to `C/C(=N\NC(=O)CC(=O)N(C(=O)c1ccc(Cl)cc1)c1ccc(C)cc1)c1ccccc1O`, the GI50 is 18 µM (inactive) in the assay with KM-20L2; 74.6 µM (inactive) with DLD-1; > 100 µM (inactive) with M19-MEL; 57.3 µM (inactive) with SNB-78; > 100 µM (inactive) with LXFL 529; > 100 µM (inactive) with XF498. Also, the GI50 is 97.1 µM (inactive) with DMS-114 and > 100 µM (inactive) with RXF 631.
Turning to `Cc1nc2ccccc2c(=O)n1/N=C(\N=N\c1ccccc1)c1ccccc1Cl`, the GI50 with KM-20L2 was 65.5 µM (inactive); with DLD-1, 42.6 µM (inactive); with M19-MEL, > 84.5 µM (inactive); in the assay on SNB-78, 30.2 µM (inactive); in the assay with LXFL 529, 24.3 µM (inactive); in the assay with XF498, 18.7 µM (inactive). Besides, the GI50 in the assay with DMS-114 was 26 µM (inactive); with HOP-18, 13.6 µM (inactive); in the assay with RXF 631, > 71.4 µM (inactive).
In the case of `CC(=O)/C(=C\c1ccccc1O)C(=O)Nc1ccccc1C`, the GI50 with DLD-1 was 20.1 µM (inactive); in the assay with M19-MEL it was 27.7 µM (inactive); in the assay on SNB-78 it was 23.4 µM (inactive); with LXFL 529, 22.3 µM (inactive); with XF498 it was 13.9 µM (inactive); in the assay on DMS-114 it was 24.3 µM (inactive). Moreover, the GI50 in the assay on HOP-18 is 40.2 µM (inactive).
On to `N#Cc1ccc(C2SCc3nc4ccccc4n32)cc1` (stereo not given), for which the GI50 in the assay on KM-20L2 is 52.7 µM (inactive); in the assay on DLD-1, > 100 µM (inactive); with M19-MEL, > 100 µM (inactive); in the assay on SNB-78, > 100 µM (inactive); with LXFL 529, 45.4 µM (inactive); in the assay on XF498, > 100 µM (inactive). Moreover, the GI50 with HOP-18 is 48.5 µM (inactive).
Take `O=S1(=O)CCCS(=O)(=O)C(c2ccccc2)=C1c1ccccc1`: the GI50 in the assay with KM-20L2 was 37.2 µM (inactive); in the assay on DLD-1, 39.7 µM (inactive); with M19-MEL, 70.5 µM (inactive); in the assay on SNB-78, > 100 µM (inactive); in the assay on LXFL 529 it was 29.6 µM (inactive); with DMS-114, 42.7 µM (inactive). Further, the GI50 is 44.6 µM (inactive) in the assay with HOP-18 and 84.7 µM (inactive) in the assay on RXF 631.
Turning to `Cc1ccc(N2C(=O)C(Cl)=C(Cl)C2=O)cc1`, the GI50 is 24.2 µM (inactive) in the assay with KM-20L2; 20.9 µM (inactive) in the assay on DLD-1; 21 µM (inactive) with M19-MEL; 24.2 µM (inactive) with SNB-78; 19.1 µM (inactive) in the assay on LXFL 529; 19 µM (inactive) in the assay with DMS-114. Further, the results for the GI50 in the assay with HOP-18 and in the assay on RXF 631 were 19 µM (inactive) and 21.1 µM (inactive), respectively.
Take `CCOCC(=O)N[C@H]1CCc2cc(OC)c(OC)c(OC)c2-c2ccc(SC)c(=O)cc21`: the GI50 in the assay on KM-20L2 was < 0.01 µM (active); in the assay on DLD-1, < 0.01 µM (active); in the assay on M19-MEL, < 0.01 µM (active); with SNB-78, < 0.01 µM (active); in the assay with LXFL 529, < 0.01 µM (active); with XF498, < 0.0224 µM (active). Moreover, the GI50 in the assay with DMS-114 was < 0.01 µM (active); in the assay on HOP-18 it was > 75.3 µM (inactive); with RXF 631, < 0.01 µM (active).
For `CC1(Br)C(=O)NC(=O)N([C@H]2C[C@H](O)[C@@H](CO)O2)C1N=[N+]=[N-]` (stereo not given in full), the GI50 with KM-20L2, with DLD-1, in the assay on M19-MEL, in the assay with SNB-78, in the assay with LXFL 529 and in the assay on XF498 was > 100 µM (inactive) each time. In addition, the GI50 was > 91.2 µM (inactive) in the assay on DMS-114, > 100 µM (inactive) in the assay with HOP-18 and > 100 µM (inactive) in the assay with RXF 631.
